Data reported in patent US20090082408A1, “NOVEL HETEROCYCLIC DERIVATIVES” (priority 2005, published 2009).
Structures can show the parent of a compound that is named as a salt.

How the values were obtained:
[1] = system: 3T3-L1 cells; assay: Glucose uptake assay using 3T3-L1 cells; format: cell-based; details: 14C deoxyglucose uptake in differentiated 3T3-L1 adipocytes; 1 μM for 72 hours; relative to reference compound BLX-1002
Experimental: Glucose Uptake Assay Using 3T3-L1 Cells
3T3-L1 cells were differentiated by the addition of differentiation cocktail (72 μg/ml insulin, 0.5 mM IBMX, 400 ng/ml Dexamethasone) for 4 days and were later fed with media without the differentation cocktail for 7-8 days. After differentiation the cells were incubated with the either the reference compound BLX-1002 or with the compounds listed in the table 1 at 1 μM concentrations for 72 hours, and the glucose uptake assay was carried out for 10 minutes by the addition of KRP buffer supplemented with 2.5 μCi/ml ^14C deoxy glucose. Stimulation Index is defined as the amount of ^14C Deoxyglucose uptake induced by 1 μM of BLX-1002 incubated for 72 hours in an assay condition as per the protocol described above with differentiated 3T3-L1 adipocytes. The values for compounds mentioned in table-1 are with reference to the stimulation index of reference compound BLX-1002.

[2] = system: streptozotocin induced diabetic mice; assay: Antidiabetic activity in streptozotocin induced diabetic mice; format: in vivo; details: 50 mg/kg body weight, oral route, 7 days, female Swiss albino mice, fasted 6 hours
Experimental: Antidiabetic Activity in Streptozotocin Induced Diabetic Mice
Female Swiss albino mice, at the age of 10 weeks were used in the study. Diabetes was induced in the animals by injecting streptozotocin by i.p. route at a dose of 200 mg/kg body weight. 48 hours after streptozotocin administration, the animals were kept fasting for 6 hours. Subsequently blood was collected, plasma separated and the glucose was estimated. Animals showing greater than 200 mg/dl glucose levels were considered as diabetic and these animals were randomly distributed into various groups. The example 2 listed in the table 2 was administered at a dose of 50-mg/kg body weight by oral route for 7 days. Later the animals were fasted for 6 hours, the blood was collected and the plasma was separated. Biochemical estimations like glucose, cholesterol and triglycerides were carried out using the plasma. The effect of the compounds mentioned in the table was expressed in terms of percentage reduction in biochemical values as compared to the control group.

## COC(=O)C(N)Cc1ccc(Oc2ccc(Nc3ccccn3)cc2)cc1 (stereo not drawn) [Example 1, Methyl-2-amino-3-{4-[4-(pyridin-2-ylamino)phenoxy]phenyl}propionate dihydrochloride]
[1]
  Stimulation Index: 1.10

## COC(=O)[C@@H](N)Cc1ccc(Oc2ccc(Nc3ccccn3)cc2)cc1 [Example 2, Methyl (2S)-2-amino-3-{4-[4-(pyridin-2-ylamino)phenoxy]phenyl}propanoate dihydrochloride]
[2]; plasma glucose vs control group
  % Reduction Glucose: 52.4%
[2]; plasma triglyceride vs control group
  % Reduction Triglyceride: 49.6%
